Test: Sialic acid in murine fecal samples (LC-MS/MS)
Assay type: in vivo
Settings: Swiss Webster, mouse, faeces; oral gavage, gnotobiotic mice monocolonized with B. thetaiotaomicron BT0455
Procedure: Groups of 6 germ-free Swiss Webster mice were orally gavaged with 1×10^9 CFU of the desired B. thetaiotaomicron strain. Fecal samples (˜100-200 mg) were collected daily for 12 days. aTC (100 μg/mL) was administered in drinking water for 12 hours after fecal collection on day 1. Fecal samples were homogenized in 1 mL of 1× tris-buffered saline (TBS) with a single 5 mm stainless steel bead using a bead beater (BioSpec Products) at 26° C. for 1 minute on the high setting, followed by vortexing at top speed for 8 minutes. Samples were then centrifuged at 500×g for 1 minute to pellet fibrous and insoluble matter. […]
For sialic acid measurements, 5 μL of internal standard solution (50 μM 1,2,3-^13C3 sialic acid in H2O) were added to each sample (20 μL) and proteins were precipitated through addition of 100 μL organic solvents at −20° C. […] The MassHunter Quantitative Analysis Software (Agilent, version 7.0) was used for peak integration with the most abundant ion fragment as quantifier and the others as qualifiers of the peak. Quantification was based on calibration curves using commercially available sialic acid and the signal intensity of the internal standard spiked into each sample.

- half-life: ~9 h
SMILES: CC(=O)N[C@H]1[C@H]([C@H](O)[C@H](O)CO)OC(O)(C(=O)O)C[C@@H]1O (stereo partly shown) [sialic acid, N-acetylneuraminic acid]

Reference: patent US11549115B2, “Compositions and methods for regulated gene expression” (YALE UNIVERSITY, priority 2017, dated 2023)
